In article PMC12472322, “Structure–Activity Relationship Study of 3-Alkynyl-6-aryl-isothiazolo[4,3-b]pyridines as Dual Inhibitors of the Lipid Kinases PIKfyve and PIP4K2C” (Pharmaceuticals, 2025):

Key:
[1] = cell viability (AlamarBlue) in SARS-CoV-2-infected Vero E6/TMPRSS2 cells; assay type: cell-based; conditions: African green monkey, Vero E6/TMPRSS2 cells infected with SARS-CoV-2, half-maximal cytotoxic concentration, read-out: SARS-CoV2 CC50
VEEV (TC-83) = test: microbe, parasite or virus in culture; assay type: cell-based; conditions: Venezuelan equine encephalitis virus, U-87 MG, 18 h, read-out: VEEV (TC-83) EC50
PIKfyve = target: T1, PIKfyve (Homo sapiens, UniProt Q9Y2I7); test: biochemical PIKfyve mobility shift assay (Nanosyn)
T1 construct: purchased Nanosyn, Santa Clara, CA, USA (contract assay service)

U-87 MG cells = conditions: half-maximal cytotoxic concentration
SARS-CoV-2 = test: microbe, parasite or virus in culture; assay type: cell-based, severe acute respiratory syndrome coronavirus 2; conditions: Severe acute respiratory syndrome coronavirus 2, VeroE6/TMPRSS2, 24 h; read-out: SARS-CoV2 EC50
PIP4K2C = target: T2, PIP4K2C (Homo sapiens, UniProt Q8TBX8); test: PIP4K2C binding assay (DiscoverX/Kinome platform)
T2 sequence (Q8TBX8 1-421): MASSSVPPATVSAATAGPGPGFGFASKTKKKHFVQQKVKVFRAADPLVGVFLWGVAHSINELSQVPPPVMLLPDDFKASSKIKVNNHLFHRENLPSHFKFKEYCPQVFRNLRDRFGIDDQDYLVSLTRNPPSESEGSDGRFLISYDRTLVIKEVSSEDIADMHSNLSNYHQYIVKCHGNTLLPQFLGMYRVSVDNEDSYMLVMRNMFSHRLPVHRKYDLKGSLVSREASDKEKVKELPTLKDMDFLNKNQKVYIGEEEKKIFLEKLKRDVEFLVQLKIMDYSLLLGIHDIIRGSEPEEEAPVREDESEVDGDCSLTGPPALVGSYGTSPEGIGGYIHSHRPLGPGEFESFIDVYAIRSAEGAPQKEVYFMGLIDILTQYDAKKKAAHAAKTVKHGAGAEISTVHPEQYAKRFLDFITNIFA

T1 sequence (Q9Y2I7 whole entry): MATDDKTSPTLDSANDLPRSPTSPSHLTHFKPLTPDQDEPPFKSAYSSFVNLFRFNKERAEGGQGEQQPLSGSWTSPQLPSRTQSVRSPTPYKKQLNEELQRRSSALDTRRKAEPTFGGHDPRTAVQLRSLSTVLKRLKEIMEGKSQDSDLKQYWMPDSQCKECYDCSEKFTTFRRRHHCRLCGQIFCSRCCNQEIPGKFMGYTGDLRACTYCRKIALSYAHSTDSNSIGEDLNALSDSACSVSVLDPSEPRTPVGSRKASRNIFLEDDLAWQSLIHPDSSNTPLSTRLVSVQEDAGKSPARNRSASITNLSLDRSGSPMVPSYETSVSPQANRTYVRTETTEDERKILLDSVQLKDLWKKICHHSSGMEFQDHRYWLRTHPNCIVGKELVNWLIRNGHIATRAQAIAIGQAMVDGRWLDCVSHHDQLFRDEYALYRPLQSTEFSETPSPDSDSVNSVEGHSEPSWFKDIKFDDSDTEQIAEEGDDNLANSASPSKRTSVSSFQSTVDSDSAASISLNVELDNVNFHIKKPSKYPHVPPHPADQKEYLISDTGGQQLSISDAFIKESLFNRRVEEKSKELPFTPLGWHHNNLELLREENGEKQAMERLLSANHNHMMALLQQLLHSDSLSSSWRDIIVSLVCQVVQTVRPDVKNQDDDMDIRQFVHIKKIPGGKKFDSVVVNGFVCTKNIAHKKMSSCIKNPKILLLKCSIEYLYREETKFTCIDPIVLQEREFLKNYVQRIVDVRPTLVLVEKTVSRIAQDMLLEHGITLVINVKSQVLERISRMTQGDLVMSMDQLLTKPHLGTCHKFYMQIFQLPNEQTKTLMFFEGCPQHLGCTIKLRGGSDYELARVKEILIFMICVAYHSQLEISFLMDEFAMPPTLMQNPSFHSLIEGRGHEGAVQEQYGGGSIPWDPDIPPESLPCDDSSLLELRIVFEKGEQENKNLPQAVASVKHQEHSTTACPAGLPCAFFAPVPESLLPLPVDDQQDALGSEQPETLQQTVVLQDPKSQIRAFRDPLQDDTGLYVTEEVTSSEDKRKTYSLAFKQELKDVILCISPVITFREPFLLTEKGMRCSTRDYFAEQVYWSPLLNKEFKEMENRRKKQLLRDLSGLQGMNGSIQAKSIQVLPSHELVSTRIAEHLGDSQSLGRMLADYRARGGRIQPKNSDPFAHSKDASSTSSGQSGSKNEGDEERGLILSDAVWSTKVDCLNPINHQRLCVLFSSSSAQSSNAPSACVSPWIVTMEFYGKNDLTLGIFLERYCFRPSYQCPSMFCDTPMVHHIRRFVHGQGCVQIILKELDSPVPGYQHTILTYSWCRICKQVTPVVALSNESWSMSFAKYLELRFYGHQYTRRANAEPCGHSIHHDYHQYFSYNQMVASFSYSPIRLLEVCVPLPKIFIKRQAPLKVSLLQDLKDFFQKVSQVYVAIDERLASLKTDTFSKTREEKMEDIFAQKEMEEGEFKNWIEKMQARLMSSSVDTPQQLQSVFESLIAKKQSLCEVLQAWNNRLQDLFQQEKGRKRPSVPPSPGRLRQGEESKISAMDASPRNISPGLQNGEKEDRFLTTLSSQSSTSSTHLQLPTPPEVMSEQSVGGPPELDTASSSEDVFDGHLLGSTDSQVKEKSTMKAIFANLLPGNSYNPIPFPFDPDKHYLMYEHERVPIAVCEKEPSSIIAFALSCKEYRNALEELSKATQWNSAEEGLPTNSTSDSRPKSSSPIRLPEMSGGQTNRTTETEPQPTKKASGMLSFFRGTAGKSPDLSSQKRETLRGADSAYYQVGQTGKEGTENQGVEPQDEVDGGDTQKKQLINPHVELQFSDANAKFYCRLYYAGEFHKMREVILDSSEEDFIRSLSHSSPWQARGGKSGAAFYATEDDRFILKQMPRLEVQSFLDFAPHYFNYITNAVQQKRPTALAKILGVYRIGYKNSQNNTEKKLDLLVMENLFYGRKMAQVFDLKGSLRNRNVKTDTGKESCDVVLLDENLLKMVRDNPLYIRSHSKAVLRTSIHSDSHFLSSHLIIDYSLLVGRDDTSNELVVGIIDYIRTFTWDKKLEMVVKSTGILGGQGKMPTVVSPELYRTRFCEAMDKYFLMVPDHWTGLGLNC

Structure (SMILES)	CC50 [1] [nM]	EC50 (VEEV (TC-83)) [nM]	IC50 (PIKfyve; Tables 1-4 and text) [nM]	VEEV (TC-83) CC50 (U-87 MG cells) [nM]	EC50 (SARS-CoV-2) [nM]	Kd (PIP4K2C) [nM]	IC50 (PIKfyve; Table 5 column) [nM]
COc1cccc(C#Cc2snc3cc(-c4ccc(OC)c(OC)c4)cnc23)c1 [Compound 7f, 6-(3,4-Dimethoxyphenyl)-3-((3-methoxyphenyl)ethynyl)isothiazolo[4,3-b]pyridine]	< 10000	4790 ± 240	21	>10000			
Fc1ccccc1-c1cnc2c(C#Cc3cccnc3)snc2c1 [Compound 3h, 6-(2-Fluorophenyl)-3-(pyridin-3-ylethynyl)isothiazolo[4,3-b]pyridine]	> 20000	6930 ± 130	8.8	>20000	1340 ± 500		
C(#Cc1snc2cc(-c3ccc(OCCN4CCOCC4)cc3)cnc12)c1cccnc1 [Compound 5a, 4-(2-(4-(3-(Pyridin-3-ylethynyl)isothiazolo[4,3-b]pyridin-6-yl)phenoxy)ethyl)morpholine]	> 20000	310 ± 10	7.1	>10000	5630 ± 970		
COc1ccc(-c2cnc3c(C#Cc4ccc(C#N)nc4)snc3c2)cc1OC [Compound 7q, 5-((6-(3,4-Dimethoxyphenyl)isothiazolo[4,3-b]pyridin-3-yl)ethynyl)picolinonitrile]			> 10000			> 30000	
COc1ccncc1C#Cc1snc2cc(-c3ccc(OC)c(OC)c3)cnc12 [Compound 7o, 6-(3,4-Dimethoxyphenyl)-3-((4-methoxypyridin-3-yl)ethynyl)isothiazolo[4,3-b]pyridine]	< 10000	920 ± 80	19	7690 ± 1		230	19
C(#Cc1snc2cc(-c3ccc(OCCN4CCCC4)cc3)cnc12)c1cccnc1 [Compound 5b, 3-(Pyridin-3-ylethynyl)-6-(4-(2-(pyrrolidin-1-yl)ethoxy)phenyl)isothiazolo[4,3-b]pyridine]	> 20000	710 ± 90	5.5	>10000	1420 ± 140		
Clc1cccc(-c2cnc3c(C#Cc4cccnc4)snc3c2)c1 [Compound 3i, 6-(3-Chlorophenyl)-3-(pyridin-3-ylethynyl)isothiazolo[4,3-b]pyridine]			21			180	21
COC(=O)c1cncc(C#Cc2snc3cc(-c4ccc(OC)c(OC)c4)cnc23)c1 [Compound 7m, Methyl 5-((6-(3,4-dimethoxyphenyl)isothiazolo[4,3-b]pyridin-3-yl)ethynyl)nicotinate]	> 20000	1160 ± 1	120	>10000	2560 ± 860		
COc1ccc(-c2cnc3c(C#Cc4ccc(F)nc4)snc3c2)cc1OC [Compound 7j, 6-(3,4-Dimethoxyphenyl)-3-((6-fluoropyridin-3-yl)ethynyl)isothiazolo[4,3-b]pyridine]			120				
COCCOc1ccc(-c2cnc3c(C#Cc4cccnc4)snc3c2)cc1 [Compound 3j, 6-(4-(2-Methoxyethoxy)phenyl)-3-(pyridin-3-ylethynyl)isothiazolo[4,3-b]pyridine]			2.1				
O=C(c1ccc(-c2cnc3c(C#Cc4cccnc4)snc3c2)cc1)N1CCCC1 [Compound 3p, (4-(3-(Pyridin-3-ylethynyl)isothiazolo[4,3-b]pyridin-6-yl)phenyl)(pyrrolidin-1-yl)methanone]			20				
COc1ccc(-c2cnc3c(C#CCNc4ccccc4)snc3c2)cc1OC [Compound 13, N-(3-(6-(3,4-Dimethoxyphenyl)isothiazolo[4,3-b]pyridin-3-yl)prop-2-yn-1-yl)aniline]			184				
COc1ccc(-c2cnc3c(/C=C(\OCCN(C)C)c4cccnc4)snc3c2)cc1OC [Compound 23b]			309				
COc1ccc(-c2cnc3c(C#Cc4ccccc4)snc3c2)cc1OC [Compound 7b, 6-(3,4-Dimethoxyphenyl)-3-(phenylethynyl)isothiazolo[4,3-b]pyridine]			59				
